Experimental data taken from PMC5054363 (Scientific Reports, 2016).
*1 amine or outer side, *2 acyl side, *3 side chain or, on linkers, in order; H or OH if unused. Where a SMILES comes first, the peptide text is derived from it. Bridges are numbered along the chain shown (N, C = ends). [ ]: non-standard residue; d: D form. The star is where a group is joined. X1 = CC[C@H](C)[C@@H](N[*:1])[C@@H](O)CC(=O)O[C@H](C(=O)[C@H](C)C(=O)[*:2])C(C)C; NMeY = CN[C@@H](Cc1ccc(O)cc1)C(=O)O; dNMeL = CN[C@H](CC(C)C)C(=O)O; Pyruvoyl = CC(=O)C(=O)*

Columns and labels:
[1] = tested on: human haploid cells with eEF1A2 knock-out; details: CRISPR/CAS9, versus parental cells, data not shown, results not conclusive
[2] = tested on: subcellular and chromatographic fractions of K-562 cell lysate; assay: Binding of [14C]-plitidepsin to K-562 lysate fractions
Experimental: Figure 4 Identification of the plitidepsin-binding protein in a K-562 cells lysate. […] In the horizontal axis “P” and “S” mean “pellet” and “supernatant”, respectively, with the figure aside denoting the relative centrifugal force (in thousands of g) used to obtain such fraction. Data (in dpm per mg of protein) represent the mean of three independent samples with error bars showing S.D. * means p < 0.05. (C) Anion-exchange chromatography on DEAE, flow rate 5 mL/min. (D) Cation-exchange chromatography on SP, flow rate 2.5 mL/min. (E) Size exclusion chromatography on Superdex 200, flow rate 4 mL/min. Representative fractions (4-mL) from each portion of the eluates were analyzed for their binding to [^14C]-plitidepsin in the presence (grey bars, non-specific binding) or absence (black bars, total binding) of a 20-fold excess of unlabeled drug. Only fractions showing significant specific binding to the radioligand were pooled and progressed to the next chromatographic step. In all cases absorbance is expressed in mAU and conductivity in mS/cm.
The rest of the peptides detected in this material corresponded to fragments whose sequences are common to both isoforms, thus discarding the presence of any other protein.
After 1 h incubation at room temperature 400 μL of each tube were withdrawn and processed as described above.

[3] = tested on: three tumor cell lines selected for resistance to plitidepsin
Experimental: In all cases eEF1A2 protein levels were analyzed by Western Blot as shown in the right hand side of each graph. ● wild type cells, ○ APL-R cells.
HeLa cervix adenocarcinoma (ATCC CCL-2), K-562 chronic myelogenous leukemia (ATCC CCL-243), NCI-H460 lung cancer (ATCC HTB-177) and HGC27 gastric cancer (ATCC CRL-2506) cells were obtained from ATCC (Manassas, VA, USA) and cultured following standard procedures. Viability assays were performed utilizing 3-(4,5-dimethylthiazol-2-yl)-2,5-diphenyltetrazolium bromide (MTT) according to methods described elsewhere.

[4] = tested on: sphingosine kinase-1 (SK1); assay: Direct effect on SK1; type: biochemical; details: preliminary, data not shown
[5] = tested on: CHRM1 (M1 muscarinic acetylcholine receptor); assay: PathHunter CHRM1 activation; type: cell-based; details: data not shown
Excerpt: For example, it is known that eEF1A is able to directly increase the activity of sphingosine kinase-1 (SK1), an effect that is related to oncogenesis. […] The hijacking of eEF1A with the consequent reduction of SK1 activity has already been described as a biological mechanism in dengue virus type-2 infected cells. Another example is the specific binding of eEF1A2 to the i3 loop of M4, but not M1, muscarinic acetylcholine receptor[40]. This direct interaction with M4 regulates its cell membrane density and activity. […] This is due to a specific interaction of eEF1A with aberrant polypeptides named defective ribosomal products (DRiPs) that are ligated to multi-ubiquitin chains following translation damage; eEF1A also plays a role in sensing DRiP accumulation when the proteasome is inhibited.

[6] = tested on: HGC27-APL-R gastric carcinoma cells (plitidepsin-resistant); assay: Cell growth inhibition (MTT, 72 h), HGC27-APL-R; type: cell-based; details: highest concentration tested 100 nM
[7] = tested on: multiple myeloma patients; details: phase III, p = 0.0054, ref clinicaltrials.gov NCT01102426; cited from earlier work
Excerpt: (§1) Plitidepsin (Aplidin) is a cyclic depsipeptide originally isolated from the marine tunicate Aplidium albicans. […] Plitidpesin has recently completed a pivotal phase III clinical trial for multiple myeloma (clinicaltrials.gov identifier: NCT01102426) that has shown a statistically significant 35% reduction in the risk of progression or death over the comparator (p = 0.0054). This study has met its primary endpoint. In tumor cells, the compound induces a potent oxidative stres ...

[8] = tested on: JNK and p38 MAPK, oxidative stress in tumor cells; details: cited from earlier work
Excerpt: as §1

[9] = two different COMPARE analyses, no reference given; cited from earlier work
Excerpt: as §1

[10] = tested on: eEF1A2 in HeLa protein extract; assay: DARTS assay (subtilisin digestion of HeLa protein extract); type: binding, human; details: plitidepsin 1 h, subtilisin 30 min, room temperature, Western blot
Experimental: (A) Saturation binding curve. […] (B) Dissociation kinetics of [14C]-plitidepsin from eEF1A2.
Each sample was then digested with subtilisin for 30 min at room temperature.
Protein extracts from HeLa cells were obtained by treating them with lysis buffer (see above) and kept on ice for 15 min. Cell extracts were cleared by centrifugation at 14,000 × g for 15 min at 4 °C. […] Extracts were digested with the indicated concentrations of Subtilisin (EC 3.4.21.62) for 30 min at RT. […] Quantitation of the eEF1A2 bands was performed with the Image Lab v5.2.1 software (Bio-Rad, Hercules, CA, USA).

[11] = tested on: NCI-H460 non-small cell lung cancer cells; assay: Cell growth inhibition (MTT, 72 h), NCI-H460; type: cell-based; details: parental NCI-H460, 72 h
Experimental: HeLa cervix adenocarcinoma (ATCC CCL-2), K-562 chronic myelogenous leukemia (ATCC CCL-243), NCI-H460 lung cancer (ATCC HTB-177) and HGC27 gastric cancer (ATCC CRL-2506) cells were obtained from ATCC (Manassas, VA, USA) and cultured following standard procedures. Viability assays were performed utilizing 3-(4,5-dimethylthiazol-2-yl)-2,5-diphenyltetrazolium bromide (MTT) according to methods described elsewhere[46].

With `CC[C@H](C)[C@H]1NC(=O)[C@@H](NC(=O)[C@@H](CC(C)C)N(C)C(=O)[C@@H]2CCCN2C(=O)C(C)=O)[C@@H](C)OC(=O)[C@H](Cc2ccc(OC)cc2)N(C)C(=O)[C@@H]2CCCN2C(=O)[C@H](CC(C)C)NC(=O)[C@@H](C)C(=O)[C@H](C(C)C)OC(=O)C[C@@H]1O` [plitidepsin, Plitidepsin] (Pyruvoyl-P[dNMeL]T[X1]LP[NMeY](Me); ester 3-C (inferred)) the “resistance of eEF1A2 knock-out cells to plitidepsin” value [1] was “increased resistance”, the “proteins detected as capable of binding plitidepsin” value ([2]; K-562 lysate, MALDI-TOF/TOF identification) was “both isoforms of eEF1A are the only proteins” and the “specific binding by size-exclusion peaks” value ([2]; Superdex 200 peaks, fourth peak eluting at 80 min, ca. 50 kDa) was “only the fourth one”. The “fold resistance to plitidepsin versus parental cells” value [3] was “at least 100 fold”, the “direct effect on SK1” value [4] was “not due to a direct effect of the drug on SK1” and the “effect on CHRM1” value [5] was “did not affect CHRM1”. For the same compound, the “effect on cell growth” value [6] was “did not cause any effect on cell growth”, the “reduction in the risk of progression or death over the comparator” value [7] was 35% and the “activation of JNK and p38” value [8] was “rapid and sustained activation”. For the same compound, the oxidative stress [8] was “potent oxidative stress”, the “similarity with other antitumor agents” value [9] was “no similarity with any other antitumor agent” and the “protection of eEF1A2 from digestion by subtilisin” value [10] was “protected eEF1A2 from digestion by subtilisin in a concentration-dependent manner”. The IC50 [11] was 0.2 nM.
